Target: T1, human GPR119 (Homo sapiens, UniProt Q8TDV5)
T1 construct: expression vector for human GPR119 cDNA (Acc. No. NP_848566); expressed in transfected cells; Min-6/hGPR119
T1 sequence (Q8TDV5 1-335): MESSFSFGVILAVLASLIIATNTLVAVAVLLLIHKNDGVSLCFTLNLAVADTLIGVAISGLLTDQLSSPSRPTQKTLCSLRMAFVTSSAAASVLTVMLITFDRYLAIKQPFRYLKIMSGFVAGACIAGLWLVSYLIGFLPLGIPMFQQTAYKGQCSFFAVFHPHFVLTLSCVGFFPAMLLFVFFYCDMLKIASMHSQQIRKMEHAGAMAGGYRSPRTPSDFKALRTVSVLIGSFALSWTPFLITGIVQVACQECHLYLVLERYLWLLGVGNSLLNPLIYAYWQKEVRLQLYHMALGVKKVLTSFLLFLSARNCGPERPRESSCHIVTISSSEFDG
Assay: AlphaScreen cAMP assay in MIN6 cells stably transfected with human GPR119
Type: cell-based
Conditions: Min-6/hGPR119 cells, 45 min at room temperature
Experimental: The compounds of formula I according to the invention modulate the activity of the G-protein-coupled receptor GPR119. The effect of the compounds on the activation of GPR119 and on the stimulation of intracellular cAMP concentration is determined using the AlphaScreen cAMP Assay Kit (Cat. No. #6760625R) made by PerkinElmer.
MIN6 cells [Miyazaki J et al. Endocrinology. 1990 July; 127(1):126-32] are stably transfected with an expression vector for human GPR119 cDNA (Acc. No. NP_848566). Min-6/hGPR119 cells are cultured in DMEM, 10% FBS, 50 μM β-mercaptoethanol, 0.3 mg/mL Geniticin, 2 mM GlutaMAX at 37° C. 5% CO2. For the assay, the cells are seeded in Optiplates (white, 384-well, 160 W—barcoded, TC, sterile with lid, Cat. No. #6007688 (Perkin Elmer); 10000 cells/well; 50 μl). The plates covered with lids are then incubated for 24 hours at 37° C./5% CO2. After the medium is aspirated from the wells completely, 10 μl of the test compound are added, the compounds are diluted using stimulating buffer (140 mM NaCl, 3.6 mM KCl, 0.5 mM NaH2PO4, 0.5 mM MgSO4, 1.5 mM CaCl2, 10 mM Hepes, 5 mM NaHCO3; pH 7.4. 0.5 mM IBMX and 0.1% BSA, the final DMSO concentration is 1%). After 45 minutes incubation at room temperature (approx. 20° C.), the cAMP concentrations are determined using the AlphaScreen cAMP Assay Kit (Cat. No. #6760625R from PerkinElmer).

Structure (SMILES) | EC50
CC(C)(C)OC(=O)N1CCC(N(C(=O)c2cnc(-c3ccc(C(=O)NC[C@H]4CCCC[C@H]4O)c(F)c3)nc2)C2CC2)CC1 (stereo in doubt) [Example 168, 4-[Cyclopropyl-(2-{3-fluoro-4-[(2-hydroxy-cyclohexylmethyl)-carbamoyl]-phenyl}-pyrimidine-5-carbonyl)-amino]-piperidine-1-carboxylic acid tert-butyl ester] | 261 nM
CC(C)(C)OC(=O)N1CCC(N(C(=O)c2ccc(-c3ccc(S(C)(=O)=O)cc3)nc2)C2CC2)CC1 [Example 1, 4-{Cyclopropyl-[6-(4-methanesulfonyl-phenyl)-pyridine-3-carbonyl]-amino}-piperidine-1-carboxylic acid tert-butyl ester] | 82 nM
CC(C)OC(=O)N1CCC(N(C(=O)c2ccc(-c3ccc(S(C)(=O)=O)cc3)nc2)C2CC2)CC1 [Example 2, 4-{Cyclopropyl-[6-(4-methanesulfonyl-phenyl)-pyridine-3-carbonyl]-amino}-piperidine-1-carboxylic acid isopropyl ester] | 213 nM
CC(C)(C)OC(=O)N1CCC(N(C(=O)c2ccc(-c3cnco3)nn2)C2CC2)CC1 [Example 6, 4-[Cyclopropyl-(6-oxazol-5-yl-pyridazine-3-carbonyl)-amino]-piperidine-1-carboxylic acid tert-butyl ester] | 1300 nM
CC(C)(C)OC(=O)N1CCC(N(C(=O)c2ncc(-c3cnco3)cn2)C2CC2)CC1 [Example 7, 4-[Cyclopropyl-(5-oxazol-5-yl-pyrimidine-2-carbonyl)-amino]-piperidine-1-carboxylic acid tert-butyl ester] | 1200 nM
CC(C)(C)OC(=O)N1CCC(N(C(=O)c2ccc(-c3cnco3)cn2)C2CC2)CC1 [Example 8, 4-[Cyclopropyl-(5-oxazol-5-yl-pyridine-2-carbonyl)-amino]-piperidine-1-carboxylic acid tert-butyl ester] | 120 nM
CC(C)(C)OC(=O)N1CCC(N(C(=O)c2cnc(-c3cnco3)nc2)C2CC2)CC1 [Example 9, 4-[Cyclopropyl-(2-oxazol-5-yl-pyrimidine-5-carbonyl)-amino]-piperidine-1-carboxylic acid tert-butyl ester] | 224 nM
Cc1cc(C(=O)N(C2CC2)C2CCN(C(=O)OC(C)(C)C)CC2)cnc1-c1cnco1 [Example 10, 4-[Cyclopropyl-(5-methyl-6-oxazol-5-yl-pyridine-3-carbonyl)-amino]-piperidine-1-carboxylic acid tert-butyl ester] | 748 nM
CC(C)(C)OC(=O)N1CCC(N(C(=O)c2cnc(-c3cnco3)cn2)C2CC2)CC1 [Example 12, 4-[Cyclopropyl-(5-oxazol-5-yl-pyrazine-2-carbonyl)-amino]-piperidine-1-carboxylic acid tert-butyl ester] | 72 nM

Next, values leading:

EC50 | Structure (SMILES)
204 nM | CC(C)(C)OC(=O)N1CCC(N(C(=O)c2ccc(-c3cn[nH]c3)nc2)C2CC2)CC1 [Example 3, 4-{Cyclopropyl-[6-(1H-pyrazol-4-yl)-pyridine-3-carbonyl]-amino}-piperidine-1-carboxylic acid tert-butyl ester]
1460 nM | Cn1cc(-c2ccc(C(=O)N(C3CC3)C3CCN(C(=O)OC(C)(C)C)CC3)cn2)ccc1=O [Example 4, 4-[Cyclopropyl-(1′-methyl-6′-oxo-1′,6′-dihydro-[2,3′]bipyridinyl-5-carbonyl)-amino]-piperidine-1-carboxylic acid tert-butyl ester]
62 nM | CC(C)(C)OC(=O)N1CCC(N(C(=O)c2ccc(-c3cnco3)nc2)C2CC2)CC1 [Example 5, 4-[Cyclopropyl-(6-oxazol-5-yl-pyridine-3-carbonyl)-amino]-piperidine-1-carboxylic acid tert-butyl ester]
136 nM | Cc1noc(C)c1-c1ccc(C(=O)N(C2CC2)C2CCN(C(=O)OC(C)(C)C)CC2)cn1 [Example 11, 4-{Cyclopropyl-[6-(3,5-dimethyl-isoxazol-4-yl)-pyridine-3-carbonyl]-amino}-piperidine-1-carboxylic acid tert-butyl ester]

Reference: patent US20140045823A1 (Neurocrine Biosciences, Inc., priority 2012, published 2014)
